{"source": "paper PMC6934184", "about": "“Selective DNA-PKcs inhibition extends the therapeutic index of localized radiotherapy and chemotherapy” (The Journal of Clinical Investigation, 2019)", "target": "T1, EGFR (ErbB1) T790M (Homo sapiens, UniProt P00533, T790M)", "T1 construct": "purchased Thermo Fisher Scientific (Life Technologies) SelectScreen", "T1 sequence (P00533 25-1210 T790M)": "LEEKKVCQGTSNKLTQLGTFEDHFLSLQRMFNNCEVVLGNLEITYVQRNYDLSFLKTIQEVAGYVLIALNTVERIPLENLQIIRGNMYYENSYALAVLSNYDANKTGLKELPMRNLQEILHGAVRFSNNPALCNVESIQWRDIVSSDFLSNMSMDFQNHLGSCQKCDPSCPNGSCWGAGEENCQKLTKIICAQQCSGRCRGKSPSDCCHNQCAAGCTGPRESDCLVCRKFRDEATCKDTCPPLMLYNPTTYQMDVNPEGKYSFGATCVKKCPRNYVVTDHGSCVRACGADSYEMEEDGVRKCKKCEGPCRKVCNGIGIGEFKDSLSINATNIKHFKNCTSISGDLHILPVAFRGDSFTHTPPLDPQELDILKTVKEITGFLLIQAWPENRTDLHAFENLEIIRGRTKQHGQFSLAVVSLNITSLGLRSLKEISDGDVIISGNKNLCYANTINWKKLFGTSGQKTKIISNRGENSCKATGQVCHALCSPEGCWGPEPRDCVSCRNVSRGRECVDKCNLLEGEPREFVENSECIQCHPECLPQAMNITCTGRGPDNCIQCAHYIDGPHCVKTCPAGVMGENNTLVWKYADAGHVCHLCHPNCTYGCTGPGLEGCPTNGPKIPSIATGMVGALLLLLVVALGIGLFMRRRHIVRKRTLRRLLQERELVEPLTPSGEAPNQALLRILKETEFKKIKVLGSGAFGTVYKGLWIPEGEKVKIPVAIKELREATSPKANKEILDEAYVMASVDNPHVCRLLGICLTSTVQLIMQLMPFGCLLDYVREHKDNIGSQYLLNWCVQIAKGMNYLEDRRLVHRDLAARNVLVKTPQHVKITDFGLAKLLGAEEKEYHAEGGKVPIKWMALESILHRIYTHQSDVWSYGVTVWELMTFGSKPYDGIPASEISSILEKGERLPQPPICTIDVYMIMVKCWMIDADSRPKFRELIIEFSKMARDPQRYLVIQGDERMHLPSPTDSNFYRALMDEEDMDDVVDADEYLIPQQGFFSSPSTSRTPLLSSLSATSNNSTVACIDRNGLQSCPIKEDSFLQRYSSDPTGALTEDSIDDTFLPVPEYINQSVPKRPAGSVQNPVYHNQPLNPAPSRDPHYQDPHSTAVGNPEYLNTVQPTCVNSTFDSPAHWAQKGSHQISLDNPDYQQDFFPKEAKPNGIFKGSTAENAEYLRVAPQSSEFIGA", "assay": "SelectScreen Z'LYTE", "format": "biochemical", "in_short": "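NU5455 was profiled across the SelectScreen Broad panel of kinase activity and binding assays. Z'LYTE reactions such as CSF1R ran at apparent Km ATP, while the Adapta CAMK1 assay used ATP listed as 10. Values are given as percent.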", "data": [{"smiles": "CN(C(=O)CN1CCOCC1)c1ccc2sc3c(-c4cccc5c(=O)cc(N6CC7CCC(C6)O7)oc45)cccc3c2c1", "note": "[NU5455]", "values": [{"measurement": "inhibition at 1 µM", "value": -3.3, "unit": "%"}]}]}
